Measured values as given in patent US9695181B2, “Hydroximic acid derivatives and medical applications therof” (Double Rider Medicine Co., LTD., priority 2013, dated 2017).

What was measured:
Format in all cases: biochemical
[1] = molecular target: KDR (VEGFR2) protein tyrosine kinase (Homo sapiens (Human), UniProt P35968); experiment: Inhibition of KDR (VEGFR2) protein tyrosine kinase substrate phosphorylation, ELISA; details: for IC50: ELISA, ATP 5 μM, * average of three experiments ± SD, ** one experiment
KDR (VEGFR2) protein tyrosine kinase, sequence (P35968 20-1356, species assumed): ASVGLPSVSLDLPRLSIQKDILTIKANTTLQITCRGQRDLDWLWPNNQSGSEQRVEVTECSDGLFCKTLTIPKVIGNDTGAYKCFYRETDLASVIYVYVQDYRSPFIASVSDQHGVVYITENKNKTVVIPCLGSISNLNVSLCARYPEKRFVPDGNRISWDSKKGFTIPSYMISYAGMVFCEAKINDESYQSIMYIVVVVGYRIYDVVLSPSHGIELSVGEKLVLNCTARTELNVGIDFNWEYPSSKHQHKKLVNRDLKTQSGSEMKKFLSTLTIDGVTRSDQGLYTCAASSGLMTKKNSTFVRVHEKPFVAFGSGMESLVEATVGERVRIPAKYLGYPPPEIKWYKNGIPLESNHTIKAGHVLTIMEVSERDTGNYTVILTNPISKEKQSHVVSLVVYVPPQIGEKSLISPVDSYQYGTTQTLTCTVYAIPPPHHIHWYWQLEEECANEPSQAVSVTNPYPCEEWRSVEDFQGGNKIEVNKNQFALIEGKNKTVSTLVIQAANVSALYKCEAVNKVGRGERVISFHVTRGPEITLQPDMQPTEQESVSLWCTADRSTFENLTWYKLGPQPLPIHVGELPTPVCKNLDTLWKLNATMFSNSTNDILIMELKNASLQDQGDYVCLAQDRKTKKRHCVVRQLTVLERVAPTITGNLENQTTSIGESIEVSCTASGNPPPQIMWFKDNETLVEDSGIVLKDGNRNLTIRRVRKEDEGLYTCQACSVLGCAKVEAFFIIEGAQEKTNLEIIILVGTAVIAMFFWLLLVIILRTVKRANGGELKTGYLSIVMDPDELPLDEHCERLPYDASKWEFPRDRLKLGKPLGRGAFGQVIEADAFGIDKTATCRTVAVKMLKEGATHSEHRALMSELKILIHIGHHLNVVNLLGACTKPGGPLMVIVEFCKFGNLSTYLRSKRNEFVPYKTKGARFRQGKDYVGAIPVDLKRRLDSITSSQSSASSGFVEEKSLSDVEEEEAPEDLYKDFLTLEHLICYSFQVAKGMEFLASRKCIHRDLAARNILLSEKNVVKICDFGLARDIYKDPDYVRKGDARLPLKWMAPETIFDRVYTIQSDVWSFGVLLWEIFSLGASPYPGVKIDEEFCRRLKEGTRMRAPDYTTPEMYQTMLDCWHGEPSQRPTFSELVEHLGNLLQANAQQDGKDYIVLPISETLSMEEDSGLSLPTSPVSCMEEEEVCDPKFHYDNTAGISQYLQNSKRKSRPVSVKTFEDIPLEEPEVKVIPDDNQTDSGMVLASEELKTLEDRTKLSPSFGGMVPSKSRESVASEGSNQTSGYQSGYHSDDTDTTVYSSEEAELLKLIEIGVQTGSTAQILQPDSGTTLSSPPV
Experimental: Kinase reaction substrate Poly(Glu, Tyr)4:1 (SIGMA);
(§1) (1) Kinase reaction substrate Poly(Glu,Tyr)4:1 was diluted to 20 µg/ml with potassium ion-free PBS, and enzyme labeled plate was coated by the substrate, reacted at 37° C. for 12-16 h, and then the liquid in holes was removed.
(§2) (2) Enzyme labeled plate was washed with T-PBS for 10 min three times.
(§3) (3) Enzyme labeled plate was dried at 37° C. in a dryer.
(§4) (4) The tested samples were added into holes of the coated enzyme labeled plate:
(§5) The tested samples was firstly formulated to be a 10^−2 M stock solution in DMSO, subpackaged and storaged at −20° C., and then diluted to required concentration with reaction buffer before use, added into the experiment holes to reach corresponding final concentration in a 100 μL reaction system. Meanwhile, positive control holes were created, and added with positive control compound Su11248.
(§6) (5) Adding ATP and the tested tyrosine kinase:
(§7) ATP solution (final concentration 5 μM) diluted with reaction buffer was added, and then tested tyrosine kinase diluted with reaction buffer was added. Total volume of the reaction system was 100 μL. Meanwhile, negative control holes and enzyme-free control holes were created.
(6) The reaction systems were placed in a wet box, reacted at 37° C. on a shaking table for 1 hour under a condition that light was prohibited, and after the reaction, the plate was washed with T-PBS for three times.
(7) Antibody PY99 100 μL/hole was added, reacted at 37° C. on a shaking table for 30 minutes. The plate was washed for three times with T-PBS.
(§8) (8) Horseradish peroxidase labeled Sheep anti mouse IgG 100 μL/hole was added, and reacted at 37° C. on a shaking table for 30 minutes. The plate was washed for three times with T-PBS.
(§9) (9) OPD coloring solution 100 μL/hole was added, and reacted at room temperature for 1-10 minutes under a condition that light was prohibited.
(§10) (10) 2M H2SO4 50 μL was added to terminate the reaction, and value A490 was measured by tunable wavelength type micro plate (Molecular Devices SPECTRAMAX190).
(§11) (11) The inhibition rate of the sample was obtained by the following equation:
(§12) [formula] Experimental Result

[2] = molecular target: PDGFR-β (Platelet-Derived Growth Factor Receptor β) protein tyrosine kinase (Homo sapiens (Human), UniProt P09619); experiment: Inhibition of PDGFR-β protein tyrosine kinase substrate phosphorylation, ELISA; details: for IC50: ELISA, ATP 5 μM, * average of three experiments ± SD, ** one experiment; for inhibition of the activity of PDGFR-β tyrosine kinase, conclusion in words: at the molecular level
PDGFR-β (Platelet-Derived Growth Factor Receptor β) protein tyrosine kinase, sequence (P09619 33-1106): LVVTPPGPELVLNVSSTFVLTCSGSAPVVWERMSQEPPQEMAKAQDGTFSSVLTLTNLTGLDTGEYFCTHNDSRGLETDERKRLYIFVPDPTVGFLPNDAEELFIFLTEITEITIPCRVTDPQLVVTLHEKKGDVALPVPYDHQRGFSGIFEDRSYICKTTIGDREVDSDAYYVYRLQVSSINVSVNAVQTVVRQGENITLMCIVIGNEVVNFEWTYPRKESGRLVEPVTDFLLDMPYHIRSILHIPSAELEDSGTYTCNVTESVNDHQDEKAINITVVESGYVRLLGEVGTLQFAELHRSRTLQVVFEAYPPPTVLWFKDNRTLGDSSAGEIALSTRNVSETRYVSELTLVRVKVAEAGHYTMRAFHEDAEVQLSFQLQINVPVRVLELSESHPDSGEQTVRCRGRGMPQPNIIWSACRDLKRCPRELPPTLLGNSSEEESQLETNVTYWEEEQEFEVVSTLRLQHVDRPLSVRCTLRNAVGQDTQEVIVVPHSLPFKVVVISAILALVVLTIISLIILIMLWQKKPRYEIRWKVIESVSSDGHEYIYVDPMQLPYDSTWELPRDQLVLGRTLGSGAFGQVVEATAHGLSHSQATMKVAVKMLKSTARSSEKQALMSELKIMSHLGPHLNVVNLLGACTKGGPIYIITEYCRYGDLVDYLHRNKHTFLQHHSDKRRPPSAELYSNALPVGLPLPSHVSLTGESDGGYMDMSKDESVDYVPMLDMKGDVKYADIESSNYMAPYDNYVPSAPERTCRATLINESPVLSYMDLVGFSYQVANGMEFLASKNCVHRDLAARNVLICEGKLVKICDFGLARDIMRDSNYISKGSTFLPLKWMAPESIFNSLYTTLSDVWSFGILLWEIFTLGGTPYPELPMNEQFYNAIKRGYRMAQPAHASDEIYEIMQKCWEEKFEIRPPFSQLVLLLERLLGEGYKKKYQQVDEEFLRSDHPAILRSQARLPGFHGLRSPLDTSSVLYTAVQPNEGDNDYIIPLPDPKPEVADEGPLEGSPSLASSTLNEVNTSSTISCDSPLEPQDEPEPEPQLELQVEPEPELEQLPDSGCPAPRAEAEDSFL
Experimental: Embodiment 19: Inhibition of Compound IIa, IIb, IIc and IId on the Activity of Catalyzing Substrate Phosphorylation of PDGFR-β (Platelet-Derived Growth Factor Receptor β) Protein Tyrosine Kinase at the Molecular Level: Enzyme-Linked Immunosorbent Assay (ELISA)
Tyrosine kinase PDGFR-β (MILLIPORE);
Kinase reaction substrate Poly(Glu,Tyr)4:1 (SIGMA);
as §1, §2, §3, §4
as §5, with “were” for “was”, “and” for “and added with”, “Su11248 was added.” for “Su11248.”
as §6, §7
(6) The reaction system were placed in a wet box, reacted at 37° C. on a shaking table for 1 hour under a condition that light was prohibited, and after the reaction, the plate was with T-PBS washed for three times.
(7) Antibody PY99 100 μL/hole was added, and reacted at 37° C. on a shaking table for 30 minutes. The plate was washed for three times with T-PBS.
as §8, §9, §10, §11, §12

Human HDAC1 = Human HDAC1 (Homo sapiens (Human), UniProt Q13547); experiment: Inhibition of catalyzing activity of histone deacetylase 1 (HDAC1), fluorescence detection; details: for IC50: substrate Ac-Lys-Tyr-Lys(Ac)-AMC, * average of three experiments ± SD, ** one experiment
Human HDAC1, sequence (Q13547 whole entry): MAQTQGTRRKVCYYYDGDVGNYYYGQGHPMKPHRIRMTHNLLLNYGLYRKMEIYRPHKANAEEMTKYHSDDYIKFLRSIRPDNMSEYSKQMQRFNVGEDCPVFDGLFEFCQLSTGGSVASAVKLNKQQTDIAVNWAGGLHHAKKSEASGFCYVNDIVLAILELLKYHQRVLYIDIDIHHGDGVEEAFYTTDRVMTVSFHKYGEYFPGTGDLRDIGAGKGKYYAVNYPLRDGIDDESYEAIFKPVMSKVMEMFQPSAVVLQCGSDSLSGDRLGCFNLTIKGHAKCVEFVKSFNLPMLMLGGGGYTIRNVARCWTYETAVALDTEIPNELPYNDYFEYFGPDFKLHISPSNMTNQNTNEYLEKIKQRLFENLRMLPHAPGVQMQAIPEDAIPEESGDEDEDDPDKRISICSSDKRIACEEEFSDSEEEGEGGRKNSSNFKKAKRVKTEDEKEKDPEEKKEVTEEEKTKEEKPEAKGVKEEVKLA
Experimental: Human HDAC1, obtained by utilizing baculovirus expression system;
Substrate, Ac-Lys-Tyr-Lys (Ac)-AMC;
Enzymatic activity was tested in 96-well or 384-well flat microwell plate by fluorescence detection and taking Ac-Lys-Tyr-Lys(Ac)-AMC as substrate. The tested samples was firstly formulated to be a 10^−2 M stock solution in DMSO, subpackaged and storaged at −20° C., and then diluted to required concentration with reaction buffer before use. […] The initial reaction speed was calculated by detecting the change of fluorescence signal with time.

Cc1ccc(F)c(NC(=O)Nc2ccc(-c3nn(CCCCCCCC(=O)NO)c4ncnc(N)c34)cc2)c1 [Compound IIb]
IC50 [1]: 2.2 ± 0.9 nM
IC50 [2]: 0.5 ± 0.1 nM
IC50 (Human HDAC1): 0.47 ± 0.07 µM

Cc1cccc(NC(=O)Nc2ccc(-c3nn(CCCCCCCC(=O)NO)c4ncnc(N)c34)cc2)c1 [Compound IIa]
IC50 [1]: 3 ± 1 nM
IC50 [2]: 2.9 ± 1.5 nM
IC50 (Human HDAC1): 1.09 ± 0.21 µM

Cc1cccc(NC(=O)Nc2ccc(-c3nn(CCCN(C)CCCC(=O)NO)c4ncnc(N)c34)cc2)c1 [Compound IId]
IC50 [1]: 1190 nM
IC50 [2]: 99.9 nM
inhibition of the activity of PDGFR-β tyrosine kinase, conclusion in words [2]: well inhibit
IC50 (Human HDAC1): 13.8 µM

Cc1cccc(NC(=O)Nc2ccc(-c3nn(CCCN(C)CCCC(=O)NO)c4ncnc(N)c34)cc2)c1 [Compound IIc]
IC50 [1]: 572 nM
inhibition of the activity of VEGFR2 tyrosine kinase, conclusion in words ([1]; at the molecular level): well inhibit
IC50 [2]: 146 nM
inhibition of the activity of PDGFR-β tyrosine kinase, conclusion in words [2]: well inhibit
inhibition of the activity of HDAC1, conclusion in words (Human HDAC1; at the molecular level): well inhibit
IC50 (Human HDAC1): 8.65 µM
